Results from patent US20240384268A1, “Oligonucleotides” (Hudson Institute of Medical Research, priority 2021, published 2024).

Target: cGAS (Homo sapiens, UniProt Q8N884)
Assay: ISD70-driven IP-10 (and IFN-β) production in THP-1 cells, ELISA
Format: cell-based
Parameters: endogenous in cells; host or cells: THP-1 (undifferentiated)
Settings: MOE-modified ASO at 100 nM; averaged IP-10 levels relative to ISD70 condition

cGAS, sequence (Q8N884 whole entry): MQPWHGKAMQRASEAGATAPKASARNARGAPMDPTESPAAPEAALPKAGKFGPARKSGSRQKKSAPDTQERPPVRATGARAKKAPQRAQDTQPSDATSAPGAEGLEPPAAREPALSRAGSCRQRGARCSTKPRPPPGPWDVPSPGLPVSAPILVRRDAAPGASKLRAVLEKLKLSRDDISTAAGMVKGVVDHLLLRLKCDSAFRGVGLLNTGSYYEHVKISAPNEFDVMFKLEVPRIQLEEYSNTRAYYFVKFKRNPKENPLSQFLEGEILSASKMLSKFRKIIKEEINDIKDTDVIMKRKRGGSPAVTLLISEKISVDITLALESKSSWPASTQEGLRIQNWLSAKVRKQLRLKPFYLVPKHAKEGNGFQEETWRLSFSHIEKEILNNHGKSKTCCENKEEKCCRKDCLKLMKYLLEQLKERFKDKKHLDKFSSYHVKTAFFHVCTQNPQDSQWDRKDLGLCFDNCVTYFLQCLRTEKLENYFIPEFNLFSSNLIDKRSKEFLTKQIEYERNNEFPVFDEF

Sequence	cGAS 100 nM
ATGTCCCCTGTTGACTGGTC (antisense; 2'-MOE modified, pattern not given here) [HPRT-489 MOE]	0.574
TGTCTTCATCGGCCCTGCCT (antisense; 2'-MOE modified, pattern not given here) [CAMSAP1-2112 MOE]	0.557
ACAGTGTTGAGATACTCGGG (antisense; 2'-MOE modified, pattern not given here) [EGFR-3652 MOE]	0.297
